Data from ChEMBL document CHEMBL1128926, “The synthesis of a hematoregulatory agent based on HP-5B containing an effective, achiral cystine replacement” (1996).
Positions of bridges follow the written chain, without caps; N, C: chain ends. Non-standard residues stand in square brackets, D forms with d. Residues, ends and D or L forms follow the SMILES beside them. Chains are numbered I, II in the order given. pGlu = O=C1CC[C@@H](C(=O)O)N1

Test: Compound was evaluated for the production of HSF activity from C6.4 stromal cells using a murine CFU-GM assay.
Assay type: functional, Mus musculus

Row | Structure (SMILES) | HSF activity x10e2
1 | NCCCC[C@H](NC(=O)CN(CCCCN(CC(=O)N[C@@H](CCCCN)C(=O)O)C(=O)[C@H](CC(=O)O)NC(=O)[C@H](CCC(=O)O)NC(=O)[C@@H]1CCC(=O)N1)C(=O)[C@H](CC(=O)O)NC(=O)[C@H](CCC(=O)O)NC(=O)[C@@H]1CCC(=O)N1)C(=O)O | 21700 ml
2 | NCCCC[C@H](NC(=O)[C@H](CSSC[C@H](NC(=O)[C@H](CC(=O)O)NC(=O)[C@H](CCC(=O)O)NC(=O)[C@@H]1CCC(=O)N1)C(=O)N[C@@H](CCCCN)C(=O)O)NC(=O)[C@H](CC(=O)O)NC(=O)[C@H](CCC(=O)O)NC(=O)[C@@H]1CCC(=O)N1)C(=O)O (I: [pGlu]EDCK-OH / II: [pGlu]EDCK-OH; disulfide I:4-II:4) | 700 ml
3 | NCCCC[C@H](NC(=O)[C@H](CCCC[C@H](NC(=O)[C@H](CC(=O)O)NC(=O)[C@H](CCC(=O)O)NC(=O)[C@@H]1CCC(=O)N1)C(=O)N[C@@H](CCCCN)C(=O)O)NC(=O)[C@H](CC(=O)O)NC(=O)[C@H](CCC(=O)O)NC(=O)[C@@H]1CCC(=O)N1)C(=O)O [GLASPIMOD] | 14300 ml
